Reference: article PMC3687796 (Clinical cancer research : an official journal of the …, 2011)
Where a name gives a salt, the structure may show the parent alone.

Tests used:
[1] = test system: tumor cell lines; assay: In vitro cytotoxicity, Alamar blue cell viability, all tumor cell lines; type: cell-based; details: 72 hours treatment, all concentrations tested
[2] = test system: SH-SY5Y xenograft; assay: SH-SY5Y subcutaneous xenograft model; type: in vivo; details: for tumor microvessel density (CD31 pixel counts): compared with the control, 20 days treatment; for tumor growth delay / tumor weights at the end of the treatment: daily oral, 20 days, LDM TP 1.0 mg/kg, PZ 150 mg/kg, TP + PZ both
[3] = test system: RH30 rhabdomyosarcoma xenograft; assay: RH30 rhabdomyosarcoma xenograft model; type: in vivo; details: for tumor growth: LDM TP 1.0 mg/kg, PZ 150 mg/kg, TP + PZ both
[4] = PKs of topotecan and pazopanib in nontumor-bearing animals; type: in vivo, mouse; details: for difference between plasma concentrations of single agent and combination treated animals: at any time point
[5] = test system: RH30; assay: In vitro cytotoxicity, Alamar blue cell viability; type: cell-based; details: Rh30, 72 h, read-out: IC50, viability of RH30
[6] = test system: RD; assay: In vitro cytotoxicity, Alamar blue cell viability; type: cell-based; details: Homo sapiens, 72 h, read-out: IC50, viability of RD
[7] = test system: KHOS; assay: In vitro cytotoxicity, Alamar blue cell viability; type: cell-based; details: 72 h, read-out: IC50, viability of KHOS
[8] = test system: BE(2)-c metastatic model; assay: BE; type: in vivo, mouse; details: daily oral until death or endpoint
[9] = test system: KHOS osteosarcoma xenograft; assay: KHOS osteosarcoma xenograft model; type: in vivo; details: for tumor growth / tumor weight at the end of the treatment / tumor microvessel density (vWF pixel counts): 28 days; for tumor microvessel density (vWF pixel counts): compared with the control
[10] = test system: ovarian cancer model; details: cited from earlier work
[11] = Pulse TP weekly oral 15 mg/kg topotecan
[12] = daily oral, LDM TP 1.0 mg/kg, TP + PZ 1.0 + 150 mg/kg

Structure (SMILES): Cc1ccc(Nc2nccc(N(C)c3ccc4c(C)n(C)nc4c3)n2)cc1S(N)(=O)=O [pazopanib, 5-[[4-[(2,3-Dimethyl-2H-indazol-6-yl)methyl-amino]-2-pyrimidinyl]amino]-2-methylbenzolsulfonamide]
- effect on viability of the tumor cell lines [1]: did not affect the viabilities
- tumor microvessel density (CD31 pixel counts) [2]: significant reduction in microvessel densities
- tumor growth delay [2]: tumor growth delay in the order PZ< LDM TP< TP+PZ
- tumor weights at the end of the treatment [2]: significant difference in tumor weights compared with the control
- WBC level (bone marrow toxicity) ([3]; after 31 days treatment): reduced WBC level significantly
- viable CEP levels in blood ([3]; after 31 days treatment): significantly lower viable CEP levels compared with the control
- enhancement of survival compared with both control and LDM TP ([3]; daily oral, 56 days): 2 fold
- tumor growth ([3]; daily oral, 56 days): delayed the tumor growth
- difference between plasma concentrations of single agent and combination treated animals [4]: no significant difference
- Cmax ([4]; mouse, plasma, po, 150 mg/kg): 134 µg/mL

Structure (SMILES): CC[C@@]1(O)C(=O)OCc2c1cc1n(c2=O)Cc2cc3c(CN(C)C)c(O)ccc3nc2-1 [topotecan, (S)-10-[(dimethylamino)methyl]-4-ethyl-4,9-dihydroxy-1H-yrano [3′,4′:6,7] indolizino[1,2-b] quinoline-3,14 (4H,12H)-dione monohydrochloride]
- IC50 [5]: 7.4 ng/mL
- IC50 [6]: 7.5 ng/mL
- IC50 [7]: 4.9 ng/mL
- effect on viability of the tumor cell lines [1]: dose-dependent reduction in the viability
- tumor microvessel density (CD31 pixel counts) [2]: but not LDM TP caused significant reduction in microvessel densities
- tumor growth delay [2]: tumor growth delay in the order PZ< LDM TP< TP+PZ
- tumor weights at the end of the treatment [2]: significant tumor weight reduction compared with PZ
- survival [8]: higher than PZ-treated animals
- tumor growth [9, 11]: delayed the tumor growth
- tumor weight at the end of the treatment [9, 11]: significantly lower tumor weight
- tumor growth [9, 12]: delayed the tumor growth
- tumor weight at the end of the treatment [9, 12]: significantly lower tumor weight
- viable CEP levels in blood ([9]; after 28 days treatment): significant reduction in viable CEP levels compared with Pulse TP
- tumor microvessel density (vWF pixel counts) ([9]; Pulse TP weekly 15 mg/kg): caused reduction in microvessel densities
- tumor microvessel density (vWF pixel counts) ([9]; daily regimens): caused reduction in microvessel densities
- tumor growth ([3]; daily oral, 56 days): ineffective in controlling the tumor growth
- peak plasma concentration of topotecan ([4]; LDM TP group, single oral 1.0 mg/kg topotecan): 19.75 ng/mL
- peak plasma concentration of topotecan ([4]; TP + PZ group, single oral 1.0 mg/kg topotecan + 150 mg/kg pazopanib): 33.05 ng/mL
- difference between plasma concentrations of single agent and combination treated animals [4]: no significant difference
- food intake ([10]; 1.5 mg/kg daily, oral): decreased food intake
- microvascular density compared with weekly maximum-tolerated dose regimen (7.5 and 15 mg/kg) ([10]; daily oral metronomic 0.5, 1.0 and 1.5 mg/kg): greater reduction in microvascular density
